Test results from patent US20220401439A1, “INTRANASAL PHARMACEUTICAL COMPOSITIONS OF CGRP INHIBITORS” (Biohaven Pharmaceutical Holding Company Ltd., priority 2019, published 2022).

Tested on: patients receiving acute treatment of migraine
Assay: Phase 2/3 trial BHV3500-201 (Study 201), efficacy in acute treatment of migraine
Type: in vivo, human
Settings: for Return to normal function at 2 hours postdose, n/N (%) / Return to normal function at 30 minutes postdose, n/N (%) / Return to normal function at 60 minutes postdose, n/N (%): mITT subjects with functional disability at on-study migraine attack onset; for Pain relapse from 2 to 48 hours postdose, n/N (%): mITT subjects with pain freedom at 2 hours postdose; for Nausea freedom at 2 hours postdose, n/N (%) / Phonophobia freedom at 2 hours postdose, n/N (%) / Photophobia freedom at 2 hours postdose, n/N (%): mITT subjects with symptom present at on-study migraine attack onset; for Pain relief at 2 hours postdose, n/N (%) / Pain relief at 30 minutes postdose, n/N (%) / Pain relief at 60 minutes postdose, n/N (%) / Rescue medication use within 24 hours postdose, n/N (%) / Sustained pain freedom from 2 to 24 hours postdose, n/N (%) / Sustained pain freedom from 2 to 48 hours postdose, n/N (%) / Sustained pain relief from 2 to 24 hours postdose, n/N (%) / Sustained pain relief from 2 to 48 hours postdose, n/N (%): mITT subjects; for Pain relief at 30 minutes postdose, Stratified Percentage Difference (Zavegepant-Placebo) / Pain relief at 60 minutes postdose, Stratified Percentage Difference (Zavegepant-Placebo) / Rescue medication use within 24 hours postdose, Stratified Percentage Difference (Zavegepant-Placebo) / Sustained pain freedom from 2 to 24 hours postdose, Stratified Percentage Difference (Zavegepant-Placebo) / Sustained pain freedom from 2 to 48 hours postdose, Stratified Percentage Difference (Zavegepant-Placebo) / Sustained pain relief from 2 to 24 hours postdose, Stratified Percentage Difference (Zavegepant-Placebo) / Sustained pain relief from 2 to 48 hours postdose, Stratified Percentage Difference (Zavegepant-Placebo) / Pain relief at 2 hours postdose, Stratified Percentage Difference (Zavegepant-Placebo): mITT; for Pain relief at 30 minutes postdose, Stratified Percentage Difference (Zavegepant-Placebo) / Pain relief at 60 minutes postdose, Stratified Percentage Difference (Zavegepant-Placebo) / Rescue medication use within 24 hours postdose, Stratified Percentage Difference (Zavegepant-Placebo) / Sustained pain freedom from 2 to 24 hours postdose, Stratified Percentage Difference (Zavegepant-Placebo) / Sustained pain freedom from 2 to 48 hours postdose, Stratified Percentage Difference (Zavegepant-Placebo) / Sustained pain relief from 2 to 24 hours postdose, Stratified Percentage Difference (Zavegepant-Placebo) / Sustained pain relief from 2 to 48 hours postdose, Stratified Percentage Difference (Zavegepant-Placebo) / Pain relief at 2 hours postdose, Stratified Percentage Difference (Zavegepant-Placebo) / Return to normal function at 30 minutes postdose, Stratified Percentage Difference (Zavegepant-Placebo) / Return to normal function at 60 minutes postdose, Stratified Percentage Difference (Zavegepant-Placebo) / Return to normal function at 2 hours postdose, Stratified Percentage Difference (Zavegepant-Placebo) / Pain relapse from 2 to 48 hours postdose, Stratified Percentage Difference (Zavegepant-Placebo) / Nausea freedom at 2 hours postdose, Stratified Percentage Difference (Zavegepant-Placebo) / Phonophobia freedom at 2 hours postdose, Stratified Percentage Difference (Zavegepant-Placebo) / Photophobia freedom at 2 hours postdose, Stratified Percentage Difference (Zavegepant-Placebo): CMH weighting; for Pain relief at 2 hours postdose, Stratified Percentage Difference (Zavegepant-Placebo): stratified by prophylactic migraine medication use; for Return to normal function at 30 minutes postdose, Stratified Percentage Difference (Zavegepant-Placebo) / Return to normal function at 60 minutes postdose, Stratified Percentage Difference (Zavegepant-Placebo) / Return to normal function at 2 hours postdose, Stratified Percentage Difference (Zavegepant-Placebo): subjects with functional disability at onset; for Pain relapse from 2 to 48 hours postdose, Stratified Percentage Difference (Zavegepant-Placebo): subjects with pain freedom at 2 hours postdose; for Nausea freedom at 2 hours postdose, Stratified Percentage Difference (Zavegepant-Placebo) / Phonophobia freedom at 2 hours postdose, Stratified Percentage Difference (Zavegepant-Placebo) / Photophobia freedom at 2 hours postdose, Stratified Percentage Difference (Zavegepant-Placebo): subjects with symptom present at onset

In the case of Cc1cc(C[C@@H](NC(=O)N2CCC(c3cc4ccccc4[nH]c3=O)CC2)C(=O)N2CCN(C3CCN(C)CC3)CC2)cc2cn[nH]c12 [Zavegepant, (R)—N-(3-(7-methyl-1H-indazol-5-yl)-1-(4-(1-methylpiperidin-4-yl)piperazin-1-yl)-1-oxopropan-2-yl)-4-(2-oxo-1,2-dihydroquinolin-3-yl)piperidine-1-carboxamide], the “Return to normal function at 2 hours postdose, n/N (%)” value (shortened to “Return … at 2 hours postdose, n/N (%)”) (zavegepant 5 mg) is reported as “(31.7) %”, the “Pain relapse from 2 to 48 hours postdose, n/N (%)” value (“Pain relapse … (%)” for short) (zavegepant 5 mg) is reported as “(31.6) %” and the “Nausea freedom at 2 hours postdose, n/N (%)” value (“Nausea freedom … (%)” for short) (zavegepant 5 mg) is reported as “(53.2) %”. For the same compound, the “Phonophobia freedom at 2 hours postdose, n/N (%)” value (shortened to “Phonophobia freedom … (%)”) (zavegepant 5 mg) was “(44.2) %”, the “Photophobia freedom at 2 hours postdose, n/N (%)” value (“Photophobia freedom … (%)” for short) (zavegepant 5 mg) was “(35.0) %” and the “Pain relief at 2 hours postdose, n/N (%)” value (zavegepant 10 mg intranasal single dose) was “(60.6) %”. The “Pain relief at 30 minutes postdose, Stratified Percentage Difference (Zavegepant-Placebo)” value (zavegepant 10 mg vs placebo) was 5.3%, the “Pain relief at 60 minutes postdose, Stratified Percentage Difference (Zavegepant-Placebo)” value (zavegepant 10 mg vs placebo) was 4.2% and the “Rescue medication use within 24 hours postdose, Stratified Percentage Difference (Zavegepant-Placebo)” value (zavegepant 10 mg vs placebo) was −1.1%. For the same compound, the “Sustained pain freedom from 2 to 24 hours postdose, Stratified Percentage Difference (Zavegepant-Placebo)” value (zavegepant 10 mg vs placebo) was 6.1%, the “Sustained pain freedom from 2 to 48 hours postdose, Stratified Percentage Difference (Zavegepant-Placebo)” value (zavegepant 10 mg vs placebo) was 6.3% and the “Sustained pain relief from 2 to 24 hours postdose, Stratified Percentage Difference (Zavegepant-Placebo)” value (zavegepant 10 mg vs placebo) was 6.8%. The “Sustained pain relief from 2 to 48 hours postdose, Stratified Percentage Difference (Zavegepant-Placebo)” value (zavegepant 10 mg vs placebo) was 7.0%, the “Pain relief at 2 hours postdose, Stratified Percentage Difference (Zavegepant-Placebo)” value (zavegepant 10 mg vs placebo) was 7.1% and the “Return to normal function at 30 minutes postdose, Stratified Percentage Difference (Zavegepant-Placebo)” value (zavegepant 10 mg vs placebo) was 2.1%. The “Return to normal function at 60 minutes postdose, Stratified Percentage Difference (Zavegepant-Placebo)” value (zavegepant 10 mg vs placebo) was 1.8%, the “Return to normal function at 2 hours postdose, Stratified Percentage Difference (Zavegepant-Placebo)” value (zavegepant 10 mg vs placebo) was 7.1% and the “Pain relapse from 2 to 48 hours postdose, Stratified Percentage Difference (Zavegepant-Placebo)” value (zavegepant 10 mg vs placebo) was −17.0%. The “Nausea freedom at 2 hours postdose, Stratified Percentage Difference (Zavegepant-Placebo)” value (zavegepant 10 mg vs placebo) was 2.9%, the “Phonophobia freedom at 2 hours postdose, Stratified Percentage Difference (Zavegepant-Placebo)” value (zavegepant 10 mg vs placebo) was 10.8% and the “Photophobia freedom at 2 hours postdose, Stratified Percentage Difference (Zavegepant-Placebo)” value (zavegepant 10 mg vs placebo) was 5.1%. The “Pain relief at 30 minutes postdose, n/N (%)” value (zavegepant 10 mg) was “(29.9) %”, the “Pain relief at 60 minutes postdose, n/N (%)” value (zavegepant 10 mg) was “(46.0) %” and the “Rescue medication use within 24 hours postdose, n/N (%)” value (zavegepant 10 mg) was “(26.0) %”. For the same compound, the “Sustained pain freedom from 2 to 24 hours postdose, n/N (%)” value (zavegepant 10 mg) was “(15.1) %”, the “Sustained pain freedom from 2 to 48 hours postdose, n/N (%)” value (zavegepant 10 mg) was “(13.8) %” and the “Sustained pain relief from 2 to 24 hours postdose, n/N (%)” value (zavegepant 10 mg) was “(42.5) %”. For the same compound, the “Sustained pain relief from 2 to 48 hours postdose, n/N (%)” value (zavegepant 10 mg) was “(39.6) %”, the “Return to normal function at 30 minutes postdose, n/N (%)” value (zavegepant 10 mg) was “(7.6) %” and the “Return to normal function at 60 minutes postdose, n/N (%)” value (zavegepant 10 mg) was “(18.9) %”. For the same compound, the “Return … at 2 hours postdose, n/N (%)” value (zavegepant 10 mg) was “(34.5) %”, the “Pain relapse … (%)” value (zavegepant 10 mg) was “(33.0) %” and the “Nausea freedom … (%)” value (zavegepant 10 mg) was “(53.9) %”. For the same compound, the “Phonophobia freedom … (%)” value (zavegepant 10 mg) was “(44.8) %”, the “Photophobia freedom … (%)” value (zavegepant 10 mg) was “(35.6) %” and the “Pain relief at 2 hours postdose, n/N (%)” value (zavegepant 20 mg intranasal single dose) was “(61.2) %”. For the same compound, the “Pain relief at 30 minutes postdose, Stratified Percentage Difference (Zavegepant-Placebo)” value (zavegepant 20 mg vs placebo) was 1.9%, the “Pain relief at 60 minutes postdose, Stratified Percentage Difference (Zavegepant-Placebo)” value (zavegepant 20 mg vs placebo) was 7.8% and the “Rescue medication use within 24 hours postdose, Stratified Percentage Difference (Zavegepant-Placebo)” value (zavegepant 20 mg vs placebo) was −7.1%. For the same compound, the “Sustained pain freedom from 2 to 24 hours postdose, Stratified Percentage Difference (Zavegepant-Placebo)” value (zavegepant 20 mg vs placebo) was 6.7%, the “Sustained pain freedom from 2 to 48 hours postdose, Stratified Percentage Difference (Zavegepant-Placebo)” value (zavegepant 20 mg vs placebo) was 5.7% and the “Sustained pain relief from 2 to 24 hours postdose, Stratified Percentage Difference (Zavegepant-Placebo)” value (zavegepant 20 mg vs placebo) was 8.9%. The “Sustained pain relief from 2 to 48 hours postdose, Stratified Percentage Difference (Zavegepant-Placebo)” value (zavegepant 20 mg vs placebo) was 6.2%, the “Pain relief at 2 hours postdose, Stratified Percentage Difference (Zavegepant-Placebo)” value (zavegepant 20 mg vs placebo) was 7.5% and the “Return to normal function at 30 minutes postdose, Stratified Percentage Difference (Zavegepant-Placebo)” value (zavegepant 20 mg vs placebo) was 4.5%. For the same compound, the “Return to normal function at 60 minutes postdose, Stratified Percentage Difference (Zavegepant-Placebo)” value (zavegepant 20 mg vs placebo) was 1.7%, the “Return to normal function at 2 hours postdose, Stratified Percentage Difference (Zavegepant-Placebo)” value (zavegepant 20 mg vs placebo) was 7.3% and the “Pain relapse from 2 to 48 hours postdose, Stratified Percentage Difference (Zavegepant-Placebo)” value (zavegepant 20 mg vs placebo) was −12.5%. The “Nausea freedom at 2 hours postdose, Stratified Percentage Difference (Zavegepant-Placebo)” value (zavegepant 20 mg vs placebo) was 3.7%, the “Phonophobia freedom at 2 hours postdose, Stratified Percentage Difference (Zavegepant-Placebo)” value (zavegepant 20 mg vs placebo) was 9.3% and the “Photophobia freedom at 2 hours postdose, Stratified Percentage Difference (Zavegepant-Placebo)” value (zavegepant 20 mg vs placebo) was 7.4%. For the same compound, the “Pain relief at 30 minutes postdose, n/N (%)” value (zavegepant 20 mg) was “(26.6) %”, the “Pain relief at 60 minutes postdose, n/N (%)” value (zavegepant 20 mg) was “(49.8) %” and the “Rescue medication use within 24 hours postdose, n/N (%)” value (zavegepant 20 mg) was “(20.2) %”. For the same compound, the “Sustained pain freedom from 2 to 24 hours postdose, n/N (%)” value (zavegepant 20 mg) was “(15.7) %”, the “Sustained pain freedom from 2 to 48 hours postdose, n/N (%)” value (zavegepant 20 mg) was “(13.2) %” and the “Sustained pain relief from 2 to 24 hours postdose, n/N (%)” value (zavegepant 20 mg) was “(44.5) %”. The “Sustained pain relief from 2 to 48 hours postdose, n/N (%)” value (zavegepant 20 mg) was “(38.8) %”, the “Return to normal function at 30 minutes postdose, n/N (%)” value (zavegepant 20 mg) was “(9.9) %” and the “Return to normal function at 60 minutes postdose, n/N (%)” value (zavegepant 20 mg) was “(18.8) %”. For the same compound, the “Return … at 2 hours postdose, n/N (%)” value (zavegepant 20 mg) was “(34.7) %”, the “Pain relapse … (%)” value (zavegepant 20 mg) was “(37.6) %” and the “Nausea freedom … (%)” value (zavegepant 20 mg) was “(54.7) %”. The “Phonophobia freedom … (%)” value (zavegepant 20 mg) was “(43.3) %” and the “Photophobia freedom … (%)” value (zavegepant 20 mg) was “(37.9) %”.
